Experimental data published in PubChem BioAssay (NCI).
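96-well plates; 48 h exposure; 5 concentrations. Endpoints by linear interpolation between flanking doses. Not reached: highest tested concentration assigned. TGI is the concentration that stops growth completely.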

Experiments:
Assay in all cases: inhibition of tumour cell growth, NCI panel, 48 h
[1] = system: PC-3 prostate
[2] = system: ACHN renal
[3] = system: DU-145 prostate
[4] = system: SNB-75 CNS
[5] = system: UACC-257 melanoma
[6] = system: OVCAR-4 ovarian
[7] = system: SK-OV-3 ovarian
[8] = system: KM12 colon
[9] = system: SK-MEL-5 melanoma
[10] = system: SW-620 colon
[11] = system: HOP-62 NSCLC
[12] = system: A498 renal
[13] = system: SF-539 CNS
[14] = system: NCI-H23 lung
[15] = system: MDA-MB-435
[16] = system: HCC-2998 colon
[17] = system: UACC-62 melanoma
[18] = system: RXF 393 renal
[19] = system: SK-MEL-28 melanoma
[20] = system: OVCAR-3 ovarian
[21] = system: A549 NSCLC
[22] = system: EKVX NSCLC
[23] = system: MALME-3M melanoma
[24] = system: U251 CNS
[25] = system: HCT-15 colon
[26] = system: NCI-H522 lung
[27] = system: SF-295 CNS
[28] = system: NCI-H460 lung
[29] = system: OVCAR-5 ovarian
[30] = system: LOX IMVI melanoma
[31] = system: TK-10 renal
[32] = system: SNB-19 CNS
[33] = system: MDA-MB-231 breast
[34] = system: NCI-H226 lung
[35] = system: SR leukemia
[36] = system: NCI/ADR-RES ovarian
[37] = system: RPMI-8226 leukemia
[38] = system: IGROV1 ovarian
[39] = system: SF-268 CNS
[40] = system: MDA-N
[41] = system: OVCAR-8 ovarian
[42] = system: BT-549 breast
[43] = system: COLO 205 colon
[44] = system: UO-31 renal
[45] = system: 786-0 renal
[46] = system: SK-MEL-2 melanoma
[47] = system: K-562 leukemia
[48] = system: SN12C renal
[49] = system: HCT-116 colon
[50] = system: MOLT-4 leukemia
[51] = system: MCF7 breast
[52] = system: M14 melanoma
[53] = system: CAKI-1 renal
[54] = system: HT29 colon
[55] = system: CCRF-CEM leukemia
[56] = system: HL-60(TB) leukemia
[57] = system: HS 578T breast
[58] = system: HOP-92 NSCLC
[59] = system: T-47D breast

Structure (SMILES): CSC(=S)OC1C(CO[Si](C)(C)C(C)(C)C)OC2OC(C)(C)OC21 (stereo not given)
- TGI [1]: 38.4 µM
- TGI [2]: 31.3 µM
- TGI [3]: > 100 µM
- TGI [4]: > 100 µM
- TGI [5]: 34.8 µM
- TGI [6]: > 100 µM
- TGI [7]: 41.5 µM
- TGI [8]: 30.4 µM
- TGI [9]: 30.4 µM
- TGI [10]: 31.9 µM
- TGI [11]: 34.4 µM
- TGI [12]: 43.4 µM
- TGI [13]: 43.5 µM
- TGI [14]: 44.3 µM
- TGI [15]: > 100 µM
- TGI [16]: 49 µM
- TGI [17]: 36.1 µM
- TGI [18]: 37.5 µM
- TGI [19]: > 100 µM
- TGI [20]: 31.3 µM
- TGI [21]: 78.6 µM
- TGI [22]: 60.1 µM
- TGI [23]: 32.4 µM
- TGI [24]: 31.8 µM
- TGI [25]: 35.3 µM
- TGI [26]: 31.3 µM
- TGI [27]: 32.2 µM
- TGI [28]: 32.8 µM
- TGI [29]: 37.6 µM
- TGI [30]: 32 µM
- TGI [31]: 49 µM
- TGI [32]: 47 µM
- TGI [33]: 33.9 µM
- TGI [34]: 29.7 µM
- TGI [35]: 30.4 µM
- TGI [36]: 36.2 µM
- TGI [37]: 36.5 µM
- TGI [38]: 53.6 µM
- TGI [39]: 45.9 µM
- TGI [40]: > 100 µM
- TGI [41]: 95.8 µM
- TGI [42]: 67 µM
- TGI [43]: 36.1 µM
- TGI [44]: 32 µM
- TGI [45]: 42 µM
- TGI [46]: 28.5 µM
- TGI [47]: 31 µM
- TGI [48]: 37.1 µM
- TGI [49]: 36.6 µM
- TGI [50]: 30.5 µM
- TGI [51]: 29.8 µM
- TGI [52]: > 100 µM
- TGI [53]: > 100 µM
- TGI [54]: 24.7 µM
- TGI [55]: 34 µM

Structure (SMILES): Clc1ccc(-c2nnc(C34CC5CC(CC(C5)C3)C4)o2)cc1
- TGI [1]: > 100 µM
- TGI [2]: > 100 µM
- TGI [3]: > 100 µM
- TGI [4]: > 100 µM
- TGI [5]: > 100 µM
- TGI [6]: > 100 µM
- TGI [7]: > 100 µM
- TGI [9]: > 100 µM
- TGI [10]: > 100 µM
- TGI [11]: > 100 µM
- TGI [12]: > 100 µM
- TGI [56]: > 100 µM
- TGI [13]: > 100 µM
- TGI [57]: > 100 µM
- TGI [14]: > 100 µM
- TGI [15]: > 100 µM
- TGI [16]: > 100 µM
- TGI [17]: > 100 µM
- TGI [18]: > 100 µM
- TGI [19]: > 100 µM
- TGI [58]: > 100 µM
- TGI [20]: > 100 µM
- TGI [21]: > 100 µM
- TGI [22]: > 100 µM
- TGI [23]: > 100 µM
- TGI [24]: > 100 µM
- TGI [25]: > 100 µM
- TGI [26]: > 100 µM
- TGI [27]: > 100 µM
- TGI [59]: > 100 µM
- TGI [28]: > 100 µM
- TGI [29]: > 100 µM
- TGI [30]: > 100 µM
- TGI [32]: > 100 µM
- TGI [33]: > 100 µM
- TGI [34]: > 100 µM
- TGI [35]: > 100 µM
- TGI [36]: > 100 µM
- TGI [37]: > 100 µM
- TGI [38]: > 100 µM
- TGI [39]: > 100 µM
- TGI [40]: > 100 µM
- TGI [41]: > 100 µM
- TGI [43]: > 100 µM
- TGI [44]: 14.6 µM
- TGI [45]: > 100 µM
- TGI [46]: > 100 µM
- TGI [47]: > 100 µM
- TGI [48]: > 100 µM
- TGI [49]: > 100 µM
- TGI [50]: > 100 µM
- TGI [52]: > 100 µM
- TGI [53]: > 100 µM
- TGI [54]: > 100 µM
- TGI [55]: > 100 µM
